Tests used:
[1] = design: species or system Sprague Dawley rats; conditions: rat, in vivo, inhaled or intranasal, 10 mg/kg
Method: 120 h single dose in vivo PK experiments of nebulized inhaled compounds were performed in healthy male Sprague Dawley rats at target body-weight doses of 10 mg/kg (RV40) or 1.5 mg/kg (TLV, RV104, RV106), using a 12-port nose-only chamber (CH Technologies, Westwood, N.J., USA) equipped with an Aerogen Aeroneb Pro mesh nebulizer. The aerosol was provided to chamber at a flow rate of 6 L/min. Lungs were collected, and drug concentrations measured by HPLC-MS/MS.
Chemical modification of the compound to include an additional moiety at R=x was accomplished to improve reduce the compound's predictive hydrophobicity.

[2] = tested on: gram positive pathogens including S. Aureus methicillin-susceptible and resistant isolates; experiment: antibacterial activity against gram positive pathogens; type: cell-based

SMILES: CCCCCCCCCCNCCN[C@@]1(C)C[C@H](O[C@H]2[C@H](Oc3c4cc5cc3Oc3ccc(cc3Cl)[C@@H](O)[C@@H](NC(=O)[C@@H](CC(C)C)NC)C(=O)N[C@@H](CC(N)=O)C(=O)N[C@H]5C(=O)N[C@H]3C(=O)N[C@H](C(=O)N[C@H](C(=O)O)c5cc(O)cc(O)c5-c5cc3ccc5O)[C@H](O)c3ccc(c(Cl)c3)O4)O[C@H](CO)[C@@H](O)[C@@H]2O)O[C@@H](C)[C@H]1O [RV40]
- half-life in lung tissue (t1/2) [1]: 12.5 days
- antibacterial activity [2]: potent antibacterial activity
